Entries after “also recorded” stand apart in the source; their conditions may differ.
Experiments:
[1] = system: Pck1 and G6pc gene expression; test: Gluconeogenic gene and protein expression in primary hepatocytes (qPCR, western); format: cell-based, mouse
Protocol: For measurement of acetylation, gene expression and glucose production SR-18292 ([…]) was added to cells overnight and fresh compound was added the following day for additional 3 h before collecting the cells (for total of ˜18 h treatment). Where insulin and glucagon stimulation were performed, the medium was changed to starvation medium (DMEM, 0.2% BSA, 2 mM sodium pyruvate, and 1% penicillin/streptomycin) with fresh compound for the last 3 h and cells were stimulated with either 100 nM insulin or 200 nM glucagon for an extra 1.5 h. For glucose measurements following PGC-1α over expression cells were incubated for the last 3 h in glucose-free medium (phenol-red/glucose free DMEM, 0.2% BSA, 2 mM sodium pyruvate and 20 mM sodium lactate or 10 mM glycerol in case glycerol was used as substrate). For glucose measurements following glucagon stimulation cells were incubated for the last 4 h in the same glucose-free medium that also contained glucagon (200 nM). The glucose level in the medium was measured using a glucose assay kit from Eton Bioscience Inc. by adding […] of assay buffer to […] of medium followed by 15 min incubation at 37° C. Absorbance was measured at 490 nm.
siRNA oligos against mouse Ppargc1a were purchased from OriGene (SR420231). Hepatocytes were transfected with a 1:1:1:mixture of 3 unique 27mer siRNA duplexes ([…]) using Lipofectamin RNAiMax (Invitrogen) immediately upon seeding with plating medium. The following morning cells were washed with PBS and medium was changed to maintenance medium. In the afternoon, cells were transfected again and compound treatment started.
(§1) Total RNA was extracted from cells or pulverized liver using TRIzol reagent (Ambion, Life Technologies), followed by cDNA preparation from 2 μg of total RNA with a High-Capacity cDNA Reverse Transcription Kit (Applied Biosystems). cDNA products were quantified by real-time PCR using Power SYBR Green PCR Master Mix (Applied Biosystems) on a CFX384 Real-Time PCR System (Bio-Rad). To calculate IC50 from C-80 dose response, curves were fit to the hill equation in a similar manner used to calculate estimated AC50 from the high-throughput qPCR screen. However, unlike the curves from the qPCR high-throughput screen, values of relative repression were used rather than of delta-Ct.

HNF4α = test: Transcriptional luciferase reporter assay (Pck1 promoter fragment with HNF4α site) in U-2 OS cells; format: cell-based; details: 24 h
Protocol: U-2 OS cells were transfected with a fixed amount of DNA. After 6 h medium was changed and compound treatment started. The following morning medium was changed again and fresh compound was added for additional 3 h after which cells were collected (24 h post transfection) with 1× Passive Lysis Buffer (Promega). Firefly luciferase reporter was determined by addition of Luciferase Assay Substrate (Dual-Luciferase Reporter Assay System, Promega) and quantification of luminescence on a FLUOstar Omega plate reader (BMG Labtech). CMV-driven Renilla luciferase vector was cotransfected as an internal control. Data are presented as firefly luciferase reporter values normalized to Renilla values and are representative of at least two independent experiments.
The GCN5 acetyl transferase complex decreases PGC-1α gluconeogenic transcriptional activation by interacting with PGC-1α. This is achieved at least in part by reducing the ability of PGC-1α to co-activate the nuclear hormone receptor HNF4α. Co-activation of HNF4α by PGC-1α is required to promote transcription of the gluconeogenic genes Pck1 and G6pc. To test whether SR-18292 reduces the transcriptional activity of HNF4α that is induced by PGC-1α, a luciferase reporter construct driven by a fragment of the Pck1 promoter containing an HNF4α binding site was used. […]

Lep^ob/ob mice = test: Blood glucose in Lep ob/ob mice with hepatic PGC-1α knockdown; format: in vivo; details: shPGC-1α adenovirus
Protocol: Virus was introduced to mice through the tail vein injection. Virus was thawed before injection and the desired amount of virus was diluted with saline to a final volume of 100 μL per mouse. Each mouse was injected with 6*10^7 pfu/g. SR-18292 treatment started on day 5 post infection.
In addition, liver toxicity, as measured by serum levels of alanine transaminase (ALT), aspartate aminotransferase (AST), lactate dehydrogenase (LDH) and bilirubin, was not observed in mice treated with SR-18292 (Table 6). […] To assess the contribution of PGC-1α in mediating the in vivo effects of SR-18292, hepatic PGC-1α in Lep^ob/ob mice was depleted using shRNA and observed a significant reduction in basal blood glucose concentrations compared to control. […] To fully assess the effects of SR-18292 on whole body glucose homeostasis and insulin resistance, a glucose tolerance test (GTT) and insulin tolerance test (ITT) were performed following the same protocol used to determine fasting blood glucose. […] As expected, insulin levels after GTT were lower in the treated group (FIG. 51). […] To test if SR-18292 chronic treatment will cause similar anti-diabetic effects, mice were treated for a period of 14 days.

[2] = Liver and serum lipids, metabolites and liver gene expression in treated HFD mice; format: in vivo
Protocol: as §1
Serum samples were gathered from blood collected by cardiac puncture. Insulin was measured with Ultra Sensitive Mouse Insulin ELISA Kit (Crystal Chem, 90080). Kits used to measure alanine transaminase (EALT-100), aspartate transaminase (EASTR-100), lactate dehydrogenase (DLDH-100) were purchased from Bioassay Systems. Kits used to measure lactate (MAK 064), b-hydroxybutyrate (MAK 041), Triglycerides (TR0100) were purchased from Sigma. Kit used to measure cholesterol (C7510) was purchased from Pointe Scientific. Kit used to measure non-esterified fatty acids was purchased from Wako.

SMILES: Cc1ccc(CN(CC(O)COc2cccc3[nH]ccc23)C(C)(C)C)cc1 (centres unmarked) [SR-18292, 1-((1H-indol-4-yl)oxy)-3-(tert-butyl(4-methylbenzyl)amino)propan-2-ol]
- gene expression after short treatment ([1]; 3 hr treatment): no effect
- gluconeogenic gene and protein expression induced by ectopic PGC-1α ([1]; Ad-PGC-1α infected hepatocytes): significantly reduced
- glucagon-stimulated Pck1 and G6pc gene expression ([1]; glucagon 200 nM): significantly reduced
- PEPCK protein levels ([1]; hepatocytes infected with Ad-PGC-1α): reduced
- suppression of Pck1 and G6pc after siRNA knock down of PGC-1α ([1]; siRNA against Ppargc1a): significantly impairs the ability of SR-18292 to suppress Pck1 and G6pc
- transcriptional activity of HNF4α induced by PGC-1α (HNF4α): significantly reduced
- SR-18292-mediated reduction in blood glucose with reduced hepatic PGC-1α (Lep^ob/ob mice): blunted SR-18292-mediated reductions in blood glucose concentrations
- serum lactate and ketone bodies (β-hydroxybutyrate) ([2]; HFD 4 weeks): not changed; also recorded: not altered
- serum levels of TG, free fatty acids and cholesterol ([2]; HFD 13 weeks): not significantly altered
- transcriptional lipid metabolic profile in liver ([2]; HFD 13 weeks): not significantly altered; also recorded: not changed
- liver TG and cholesterol levels ([2]; HFD 17 weeks, also after prolonged treatment): not changed

Reference: patent US11247970B2, “Selective inhibition of gluconeogenic activity” (Dana-Farber Cancer Institute, Inc., priority 2017, dated 2022)
